# In patent publication US11167006B2 (Shanghai Tianci Life Science Development Co., Ltd., priority 2016, dated 2021):
# Entries after “also recorded” stand apart in the source; their conditions may differ. Square brackets hold non-standard residues; d marks the D form. Peptide text beside a SMILES is read from it. NMeF = CN[C@@H](Cc1ccccc1)C(=O)O
# What was measured:
# [1] = system: formalin-induced pain mice; experiment: Formalin pain test; assay type: in vivo, mouse
# Method: The mice were placed in a transparent organic glass box (20×20×30 cm) to accommodate the environment for 10-15 min; a mirror tilted at 30 degrees was placed underneath to facilitate observation of the mouse's foot reaction. After adaptation, the mice were administered in lateral ventricle, intrathecally or intraperitoneally. 5 minutes after administration, 20 μL of a 5% formalin solution was subcutaneously injected into the toes of the right hind paw of the mice, and quickly placed back in the observation box. Timing was started, and the time when the mouse was licking, biting and shaking the injected paw during 0-5 minutes and 15-30 minutes after the injection of the formalin solution were recorded respectively.
# The experimental data was expressed by MPE (maximum possible effect), MPE (%)=100×[(licking paw time in saline group−licking paw time in drug group)/licking paw time in saline group]. The relevant MPE data were expressed as mean±standard error Means±S.E.M.), the data for differences between groups treated with different drug concentrations were analyzed by one-way ANOVA (Bonferroni test in one-way ANOVA) for statistics and analysis, ***P<0.001 represents that there was a significant difference between the MPE value of the drug-treated group and that of the saline group.
# [2] = system: postoperative pain in mice; experiment: Postoperative pain model (electronic Von Frey); assay type: in vivo, mouse; settings: mechanical pain threshold
# From the text: The postoperative pain in mice was detected mainly by an electronic Von Frey tenderness instrument. The basic pain threshold of normal mice was first determined, and then the mice were anesthetized with isoflurane. With the back facing up, the right hind paw of the mouse was fixed and disinfected with iodine solution. A 5 mm longitudinal incision was made with a No. 11 blade at 2 mm from the ankle to expose the plantaris, blood vessels and fascia, and the wound was sutured using a 4-0 surgical suture and a small suture needle, and the wound is coated with erythromycin ointment. The mechanical pain sensitivity value of the surgical foot of the mice was measured 6 h after the surgery, and then compound 9 was intrathecally or intraperitoneally given, and the mechanical pain threshold at different time points after administration were recorded.
# The experimental data were expressed as mean±standard error (Means±S.E.M.), and the data for differences between groups treated with different drug concentrations were analyzed by one-way ANOVA (Bonferroni test in one-way ANOVA) for statistics and analysis, ***P<0.001 represents that there was a significant difference between the MPE value of the drug-treated group and that of the saline group.
# First, the maximum analgesic effect (MPE) was calculated, MPF. […]
# [3] = system: gastrointestinal movement of male mice of Kunming strain; experiment: Gastrointestinal movement in vivo (activated carbon suspension); design: species or system mouse
# Method: Male mice of Kunming strain, weighing 26±2 g. The commonly used toner detection method was used in the detection of astrointestinal movement in vivo. The specific experimental procedure was: before the gastrointestinal movement experiment, the mice were fasted for 16 hours (free drinking during fasting), then the drug was injected through spinal cord or subcutaneously, and after 15 minutes, the activated carbon suspension prepared in advance (a physiological saline suspension containing 5% of activated carbon and 10% gum arabic) was orally perfused into the stomach in a volume of 0.1 ml per 10 g of body weight. After 30 minutes from the perfusion of activated carbon suspension, the animals were sacrificed by cervical dislocation, and then the small intestine of the animal from the pylorus to the cecum was carefully taken out. The total lengths of the small intestine from the pylorus to the cecum and the furthest distance from which the activated carbon suspension moves were measured.
# Gastrointestinal movement test results were evaluated by a percentage of gastrointestinal movement, and the percentage of gastrointestinal movement per mouse was calculated by dividing the moving distance of the activated carbon suspension by the total length of the small intestine. The relevant data were expressed as mean of the percentage of gastrointestinal movement±standard error (Means±S.E.M.), the data for differences between groups treated with different drug concentrations were analyzed by one-way ANOVA (Dunnett test in one-way ANOVA) for statistics and analysis, ***P<0.001 represented that there was a significant difference between the percentage of gastrointestinal movement of the drug-treated group and that of the saline group.
# [4] = system: body temperature of mice; experiment: Body temperature of mice (rectal temperature); assay type: in vivo; settings: mouse, intrathecal; doses 100, 300, 500 pmol
# Method: Mice were fixed in the manner described in Rosow et al. (1980). The ambient temperature was controlled at 21±0.5° C. and the experiment was carried out between 10 am and 2 pm. A temperature sensor attached to the biofunctional test BL-420F system was inserted into the rectum of the mouse in a depth of 2.5 cm to record the rectal temperature. The body temperatures before the intrathecal administration and at 10, 20, 30, 40, 50 and 60 minutes after administration were recorded.
# The experiment results of regulation on the mouse body temperature were expressed as the difference between the basal body temperature and the body temperature after administration. The relevant data were expressed as mean+standard error (Means±S.E.M.). Differences between groups treated with different drug concentrations were analyzed by one-way ANOVA (Bonfenoni test in one-way ANOVA) for data statistics and analysis.
# [5] = system: mice; experiment: Conditional position preference test (CPP); assay type: in vivo, mouse; settings: subcutaneous 10 mg/kg
# Method: The conditional position preference experimental device is a closed device (45×20×20 cm) assembled from transparent plexiglass plates. Two 20×20×20 cm conditional preference boxes are located at both ends of the device, with a small compartment 5×20×20 cm having a passage (5×5×5 cm) connected in the middle. On the first day of the experiment, the passage was kept open, the mice was placed into the device for 15 min, and the mice that had been explored for more than 9 min in any of the preference boxes were excluded. […] On day 5, the passage was kept opened again to ensure that the mice were free to enter into the two preference boxes, and the time that the mice stayed in the drug matching preference box within 15 minutes of the total time was recorded.
# The experimental relevant data were expressed as mean±standard error (Means±S.E.M.), and the conditional position preference score represents the time spent on the drug matching preference box on day 5 of each mouse minus the time on the first day in this preference box. Differences between groups treated with different drugs in CPP trials were analyzed by one-way ANOVA (Tukey HSD test in one-way ANOVA) for data statistics and analysis.
# [6] = system: mice; experiment: Naloxone withdrawal test; assay type: in vivo, mouse; settings: s.c. at 8 hours intervals 20, 40, 60, 80, 100, 100, 100 mg/kg; naloxone 1 mg/kg; 30 minutes
# [7] = lateral ventricle (i.c.v.), listed as compound 9
# [8] = lateral ventricle, from ED50 values
structure (smiles),measurement,setting,value
"C[C@@H](NC(=O)[C@@H](N)Cc1ccc(O)cc1)C(=O)NCC(=O)N(C)[C@@H](Cc1ccccc1)C(=O)NCC(=O)N1CCC[C@H]1C(=O)N[C@@H](CCC(N)=O)C(=O)N[C@@H](CCCNC(=N)N)C(=O)N[C@@H](Cc1ccccc1)C(N)=O [Compound 9, Tyr-D-Ala-Gly-NMe-Phe-Gly-Pro-Gln-Arg-Phe-NH2] (H-Y[dA]G[NMeF]GPQRF-NH2)",ED50 value (95% confidence interval) first phase pain,[1]; intraperitoneal (i.p.),8.855 (7.573 to 10.35) mg/kg
same,ED50 value (95% confidence interval) second phase pain,[1]; intraperitoneal (i.p.),10.92 (9.632 to 12.39) mg/kg
same,ED50 value (95% confidence interval) first phase pain,[1]; intrathecal (i.t.),37.69 (35.53 to 39.99) pmol
same,ED50 value (95% confidence interval) second phase pain,[1]; intrathecal (i.t.),55.04 (51.26 to 59.10) pmol
same,ED50 value (95% confidence interval) first phase pain,[1]; lateral ventricle (i.c.v.),18.8 pmol
same,ED50 value (95% confidence interval) second phase pain,[1]; lateral ventricle (i.c.v.),103.4 pmol
same,ED50 value (95% confidence interval) first phase pain,[1]; [7],18.80 (15.97 to 22.12) pmol
same,ED50 value (95% confidence interval) second phase pain,[1]; [7],103.4 (96.02 to 111.3) pmol
same,"analgesic effect relative to BN-9, first phase pain",[1]; [8],6.3 times
same,"analgesic effect relative to BN-9, second phase pain",[1]; [8],11.0 times
same,ED50 value of analgesia for postoperative pain,[2]; intraperitoneal,26.15 (22.62-30.23) mg/kg
same,ED50 value of analgesia for postoperative pain,[2]; intrathecal,8.63 (6.70-11.11) pmol
same,percentage of gastrointestinal movement,[3]; 10 mg/kg (compound 9 subcutaneous; morphine positive control),37.10%
same,dose with significant inhibitory effect on gastrointestinal movement,[3]; intrathecal injection,≥ 300 pmol
same,percentage of gastrointestinal movement,"[3]; intrathecal injection, 100 pmol",45.71%
same,percentage of gastrointestinal movement,"[3]; intrathecal injection, 300 pmol",31.40%
same,percentage of gastrointestinal movement,"[3]; intrathecal injection, 500 pmol",21.67%
same,percentage of gastrointestinal movement,"[3]; subcutaneous, 1 mg/kg",47.28%
same,percentage of gastrointestinal movement,"[3]; subcutaneous, 30 mg/kg",33.12%
same,percentage of gastrointestinal movement,"[3]; subcutaneous, 100 mg/kg",24.14%
same,dose producing a significant effect of lowering body temperature,[4],500 pmol
same,conditional positional preference,[5],produced significant conditional positional preference; also recorded: lower degree of preference than morphine
same,average number of jumps after naloxone withdrawal,[6],11.63
